# Laboratory results published in patent US10017403B2, “Use of peracetic acid/hydrogen peroxide and peroxide-reducing enzymes for treatment of drilling fluids, frac fluids, flowback water and disposal water” (ECOLAB USA INC., priority 2012, dated 2018).
# How the values were obtained:
# fracking water mixtures [1] = assay: Micro efficacy: POAA dosed for 30 ppm residual versus POAA pretreated with catalase (Example 8); format: cell-based; details: no holding tank treatment
# Description: A micro efficacy comparison of POAA added at levels to target 30 ppm POAA residuals at 5 minutes versus POAA pretreated with catalase was conducted as set forth in Table 12.
# [2] = test system: Pseudomonas aeruginosa ATCC 15442; assay: Micro efficacy at 30 ppm POAA with or without catalase, with or without water pretreatment (Example 7); format: cell-based; details: no holding tank pretreatment, 30 ppm PAA
# Description: All water mixtures were treated with an initial concentration of 30 ppm POAA EnviroSan, both with and without the addition of catalase. The data set evaluates whether there is a significant difference in micro activity generated between treatments of EnviroSan alone vs. EnviroSan pre-reduced with catalase.
# All ratios of fracking water mixtures tested (100/0, 90/10, 80/20 & 70/30) were freshly mixed solutions, as well as solutions mixed and pretreated with 500 ppm EnviroSan product more than 1 hour before the start of the micro evaluation, in order to observe if a pretreatment step is of value for micro performance compared to those mixtures not pretreated. The test system (P. aeruginosa and natural water) described in Example 5 was again utilized. Water mixtures as outlined in Table 9 were provided (showing the percentage of 100 mL of each water sample type).
# The testing methods of Example 5 were utilized for the chemically treated water samples, differing only in the combination of the 10 mL inoculated water mixtures with appropriate volumes of the EnviroSan with or without catalase to achieve 30 ppm POAA residual to each test tube in timed intervals and mixed. The methods of Example 5 were employed to make the EnviroSan with catalase stock solutions. In comparison, for the water samples that were not chemically treated, 9.9 mL of test water mixture was dispensed into 2 individual test tubes. 0.10 mL of an approximate 10^8 CFU/mL culture of P. aeruginosa was added in timed intervals and mixed thoroughly. Then 1 mL samples were neutralized in 9 mL of 0.5% sodium thiosulfate, followed by serial dilution and enumeration after 2.5 minutes, 5 minutes and 60 minute exposure times.
# Table 11C show the use of 30 ppm POAA with/without catalase treatment compared for micro performance at both 2.5 and 5.0 minutes exposure times. Upon addition of 10-30% reuse water a defined drop in antimicrobial performance was observed over both 2.5 and 5 minutes as peracid was rapidly consumed if not pretreated with catalase. A residual of 30 ppm POAA at 5 minutes was needed to achieve the desired antimicrobial performance.
# [3] = Titration of POAA consumption in water mixtures (Example 6); format: physicochemical
# fracking water mixtures [4] = assay: Micro efficacy in fracking water mixtures, baseline without catalase (Example 3); format: cell-based
# Description: The impact of water pretreatment with 500 ppm of the EnviroSan product (75 ppm POAA) on micro efficacy in various fracking water mixtures were evaluated. The example represents a baseline data set of various water treatment options according to the invention. Table 2 and FIG. 3 show the average log reduction in various slick water treatments with varying ppm PAA (without any catalase treatment or pretreatment), representing a baseline data set.
# [5] = Catalase amount needed in POAA treated water, iodometric titration (Example 15); format: biochemical
# Description: Field of use applications were analyzed to determine the amount of a peroxide-reducing enzyme necessary to obtain desired concentrations of both peracid and hydrogen peroxide in a treated water source. EnviroSan (POAA) peracid composition was added to water to reach the targeted POAA concentrations set forth in Table 18, and the concentration of both POAA and H2O2 were confirmed by iodometric titration. Then catalase (ES2000) was added to the solution, and the sample was stored under ambient conditions. The concentration of POAA and H2O2 were monitored by the iodometric conditions.
# [6] = catalase 0.5 ppm, time 0 hr, series starting 14.6 ppm POAA, EnviroSan in water, ambient
# [7] = catalase 0.5 ppm, time 0 hr, series starting 31.1 ppm POAA
# [8] = catalase 0.5 ppm, time 1 hr, series starting 14.6 ppm POAA
# [9] = catalase 0.5 ppm, time 1 hr, series starting 31.1 ppm POAA
# [10] = catalase 0.5 ppm, time 2 hr, series starting 14.6 ppm POAA
# [11] = catalase 0.5 ppm, time 2 hr, series starting 31.1 ppm POAA
# [12] = catalase 0.5 ppm, time 3.6 hr, series starting 14.6 ppm POAA
# [13] = catalase 0.5 ppm, time 3.6 hr, series starting 31.1 ppm POAA
# [14] = catalase 1.0 ppm, time 0 hr, series starting 14.8 ppm POAA
# [15] = catalase 1.0 ppm, time 0 hr, series starting 30.1 ppm POAA
# [16] = catalase 1.0 ppm, time 1 hr, series starting 14.8 ppm POAA
# [17] = catalase 1.0 ppm, time 1 hr, series starting 30.1 ppm POAA
# [18] = catalase 1.0 ppm, time 2 hr, series starting 14.8 ppm POAA
# [19] = catalase 1.0 ppm, time 2 hr, series starting 30.1 ppm POAA
# [20] = catalase 1.0 ppm, time 3.6 hr, series starting 14.8 ppm POAA
# [21] = catalase 1.0 ppm, time 3.6 hr, series starting 30.1 ppm POAA
molecule,measurement,setting,value
"CC(=O)OO [POAA, peracetic acid]",Avg. Log10 Reduction,"fracking water mixtures [1]; 10% reuse H2O, 46 ppm PAA, 2.5 minutes",4.32 Log10
same,Avg. Log10 Reduction,"fracking water mixtures [1]; 10% reuse H2O, 46 ppm PAA, 5 minutes",4.72 Log10
same,Avg. Log10 Reduction,"fracking water mixtures [1]; 20% reuse H2O, 86 ppm PAA, 2.5 minutes",4.57 Log10
same,Avg. Log10 Reduction,"fracking water mixtures [1]; 20% reuse H2O, 86 ppm PAA, 5 minutes",4.64 Log10
same,Avg. Log10 Reduction,"fracking water mixtures [1]; 30% reuse H2O, 138 ppm PAA, 2.5 minutes",4.12 Log10
same,Avg. Log10 Reduction,"fracking water mixtures [1]; 30% reuse H2O, 138 ppm PAA, 5 minutes",5.00 Log10
same,Avg. Log10 Reduction,"[2]; 0% reuse H2O, 2.5 minutes",4.64 Log10
same,Avg. Log10 Reduction,"[2]; 0% reuse H2O, 5 minutes",6.32 Log10
same,Avg. Log10 Reduction,"[2]; 10% reuse H2O, 2.5 minutes",3.09 Log10
same,Avg. Log10 Reduction,"[2]; 10% reuse H2O, 5 minutes",3.91 Log10
same,Avg. Log10 Reduction,"[2]; 20% reuse H2O, 2.5 minutes",2.19 Log10
same,Avg. Log10 Reduction,"[2]; 20% reuse H2O, 5 minutes",2.38 Log10
same,Avg. Log10 Reduction,"[2]; 30% reuse H2O, 2.5 minutes",1.88 Log10
same,Avg. Log10 Reduction,"[2]; 30% reuse H2O, 5 minutes",1.93 Log10
same,Actual Titrated Concentration (ppm POAA),"[3]; 70% Fresh/30% Produced, desired 30 ppm POAA, 1 minutes",7 ppm
same,Actual Titrated Concentration (ppm POAA),"[3]; 70% Fresh/30% Produced, desired 30 ppm POAA, 5 minutes",0 ppm
same,Actual Titrated Concentration (ppm POAA),"[3]; 70% Fresh/30% Produced, desired 40 ppm POAA, 1 minutes",12 ppm
same,Actual Titrated Concentration (ppm POAA),"[3]; 70% Fresh/30% Produced, desired 40 ppm POAA, 5 minutes",0 ppm
same,Actual Titrated Concentration (ppm POAA),"[3]; 80% Fresh/20% Produced, desired 30 ppm POAA, 1 minutes",13 ppm
same,Actual Titrated Concentration (ppm POAA),"[3]; 80% Fresh/20% Produced, desired 30 ppm POAA, 5 minutes",0 ppm
same,Actual Titrated Concentration (ppm POAA),"[3]; 80% Fresh/20% Produced, desired 40 ppm POAA, 1 minutes",21 ppm
same,Actual Titrated Concentration (ppm POAA),"[3]; 80% Fresh/20% Produced, desired 40 ppm POAA, 5 minutes",2 ppm
same,Actual Titrated Concentration (ppm POAA),"[3]; 90% Fresh/10% Produced, desired 30 ppm POAA, 1 minutes",21 ppm
same,Actual Titrated Concentration (ppm POAA),"[3]; 90% Fresh/10% Produced, desired 30 ppm POAA, 5 minutes",8 ppm
same,Actual Titrated Concentration (ppm POAA),"[3]; 90% Fresh/10% Produced, desired 40 ppm POAA, 1 minutes",30 ppm
same,Actual Titrated Concentration (ppm POAA),"[3]; 90% Fresh/10% Produced, desired 40 ppm POAA, 5 minutes",16 ppm
same,Avg. Log10 Reduction,"fracking water mixtures [4]; 75 ppm PAA holding tank pretreatment, 10% reuse H2O, 29 ppm POAA, no catalase, 2.5 minutes",6.45 Log10
same,Avg. Log10 Reduction,"fracking water mixtures [4]; 75 ppm PAA holding tank pretreatment, 10% reuse H2O, 29 ppm POAA, no catalase, 5 minutes",6.71 Log10
same,Avg. Log10 Reduction,"fracking water mixtures [4]; 75 ppm PAA holding tank pretreatment, 20% reuse H2O, 47 ppm PAA, no catalase, 2.5 minutes",6.42 Log10
same,Avg. Log10 Reduction,"fracking water mixtures [4]; 75 ppm PAA holding tank pretreatment, 20% reuse H2O, 47 ppm PAA, no catalase, 5 minutes",6.55 Log10
same,Avg. Log10 Reduction,"fracking water mixtures [4]; 75 ppm PAA holding tank pretreatment, 30% reuse H2O, 86 ppm POAA, no catalase, 2.5 minutes",6.47 Log10
same,Avg. Log10 Reduction,"fracking water mixtures [4]; 75 ppm PAA holding tank pretreatment, 30% reuse H2O, 86 ppm POAA, no catalase, 5 minutes",6.41 Log10
same,Avg. Log10 Reduction,"fracking water mixtures [4]; no holding tank pretreatment, 0% reuse H2O, 22 ppm POAA, 2.5 minutes",5.53 Log10
same,Avg. Log10 Reduction,"fracking water mixtures [4]; no holding tank pretreatment, 0% reuse H2O, 22 ppm POAA, 5 minutes",5.75 Log10
same,Avg. Log10 Reduction,"fracking water mixtures [4]; no holding tank pretreatment, 10% reuse H2O, 36 ppm POAA, 2.5 minutes",4.32 Log10
same,Avg. Log10 Reduction,"fracking water mixtures [4]; no holding tank pretreatment, 10% reuse H2O, 36 ppm POAA, 5 minutes",4.72 Log10
same,Avg. Log10 Reduction,"fracking water mixtures [4]; no holding tank pretreatment, 20% reuse H2O, 86 ppm POAA, 2.5 minutes",4.57 Log10
same,Avg. Log10 Reduction,"fracking water mixtures [4]; no holding tank pretreatment, 20% reuse H2O, 86 ppm POAA, 5 minutes",4.64 Log10
same,Avg. Log10 Reduction,"fracking water mixtures [4]; no holding tank pretreatment, 30% reuse H2O, 138 ppm POAA, 2.5 minutes",4.12 Log10
same,Avg. Log10 Reduction,"fracking water mixtures [4]; no holding tank pretreatment, 30% reuse H2O, 138 ppm POAA, 5 minutes",5.00 Log10
catalase,catalase concentration sufficient for treating the water source,[5]; ambient conditions,~1 ppm
same,H2O2 (ppm),[5]; [6],12.0 ppm
same,POAA (ppm),[5]; [6],14.6 ppm
same,H2O2 (ppm),[5]; [7],22.8 ppm
same,POAA (ppm),[5]; [7],31.1 ppm
same,H2O2 (ppm),[5]; [8],7.5 ppm
same,POAA (ppm),[5]; [8],15.0 ppm
same,H2O2 (ppm),[5]; [9],12.2 ppm
same,POAA (ppm),[5]; [9],32.0 ppm
same,H2O2 (ppm),[5]; [10],6.5 ppm
same,POAA (ppm),[5]; [10],14.3 ppm
same,H2O2 (ppm),[5]; [11],7.8 ppm
same,POAA (ppm),[5]; [11],29.2 ppm
same,H2O2 (ppm),[5]; [12],1.8 ppm
same,POAA (ppm),[5]; [12],14.2 ppm
same,H2O2 (ppm),[5]; [13],3.4 ppm
same,POAA (ppm),[5]; [13],30.6 ppm
same,H2O2 (ppm),[5]; [14],12.6 ppm
same,POAA (ppm),[5]; [14],14.8 ppm
same,H2O2 (ppm),[5]; [15],23.3 ppm
same,POAA (ppm),[5]; [15],30.1 ppm
same,H2O2 (ppm),[5]; [16],3.7 ppm
same,POAA (ppm),[5]; [16],14.6 ppm
same,H2O2 (ppm),[5]; [17],7.6 ppm
same,POAA (ppm),[5]; [17],31.0 ppm
same,H2O2 (ppm),[5]; [18],1.1 ppm
same,POAA (ppm),[5]; [18],14.2 ppm
same,H2O2 (ppm),[5]; [19],2.3 ppm
same,POAA (ppm),[5]; [19],29.6 ppm
same,H2O2 (ppm),[5]; [20],0.4 ppm
same,POAA (ppm),[5]; [20],15.9 ppm
same,H2O2 (ppm),[5]; [21],0.0 ppm
same,POAA (ppm),[5]; [21],29.3 ppm
same,selectivity of catalase for H2O2 over POAA,[5]; tested ambient conditions,selectively decomposes the H2O2 without having any negative impact on POAA stability
same,lowest catalase concentration with which pond water with POAA and H2O2 could be treated,"[5]; within 4 hours, ambient conditions",0.5 ppm
